According to US20230219898A1, “COMPOUNDS AND METHODS FOR BLOCKING APOPTOSIS AND INDUCING AUTOPHAGY” (President and Fellows of Harvard College, priority 2020, published 2023):
Where two headings read alike, the source gives them in different places.

Assays:
TRADD-N = target: T1, TRADD-N (Homo sapiens, UniProt Q15628); test: BIAcore SPR binding to TRADD-N; settings: 25C, steady-state affinity
T1 construct: expression constructs encoding Flag-TRADD-N(1-179) and HA-TRADD-C(180-312); His (N); made in house
T1 sequence (Q15628 1-179): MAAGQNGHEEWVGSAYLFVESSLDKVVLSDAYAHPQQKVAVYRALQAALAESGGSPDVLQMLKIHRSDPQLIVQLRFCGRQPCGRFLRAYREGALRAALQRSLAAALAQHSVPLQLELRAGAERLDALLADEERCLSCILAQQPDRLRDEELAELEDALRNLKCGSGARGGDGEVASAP
Protocol: A series of concentrations of ICCB-19 (ranging from 0.3125 to 10 μM) was used to measure the binding kinetics, with TRADD-N immobilized on the CM5 chip.
The binding affinity between ICCB-19/Apt-1 and TRADD-N was analyzed at 25C on a BIAcore T200 machine with CM5 chips (GE Healthcare). PBS-P buffer (GE Healthcare) was used for all measurements. For surface plasmon resonance (SPR) measurements, Flag-tagged TRADD-N protein was purified from HEK293T cells by anti-Flag affinity gel and eluted by 3×Flag peptide. The protein was further purified by size exclusion chromatograph on a Superdex 75 column (GE Healthcare) in a buffer containing 20 mM imidazole (pH 6.6), 200 mM NaCl, 20 mM DTT. The protein was dialyzed into PBS and diluted to a final concentration of 40 μg/ml in NaOAc buffer (pH 4.5) before immobilization on CM5 chip. ˜5000 response units of protein were immobilized on the chip with a running buffer composed of PBS-P. Reference was used to normalize the response unit (RU) values of protein. A series of compound concentrations ranging from 0.3125 to 10 μM was tested at […] flow rate. The contact time is 100 s and dissociation time is 120 s. When the data collection was finished in each cycle, the sensor surface was regenerated with PBS-P buffer. DMSO solvent correction was performed following the BIAcore T200 Guide.

MEFs [1] = test: RDA in MEFs induced by mTNFα and 5Z-7-Oxozeaenol, cell survival; format: cell-based, mouse; settings: for protection against RDA models: 10 μM; for IC50: Mus musculus, FIG. 5c, mTNFα 1 ng/mL, 5Z-7-Oxozeaenol 0.5 μM, 8 h, read-out: IC50 of inhibition of RDA
Protocol: The rates of cell death were measured in triplicate or quadruplicate in a 96-well or 384-well plate by using SYTOX Green Nucleic Acid Stain (Invitrogen) or ToxiLight Non-destructive Cytotoxicity BioAssay Kit (Lonza). The intensity of luminescence was determined in an EnSpire Multimode Plate Reader (PerkinElmer). Cytotoxicity is expressed as percentages of cell death per well after deducting the background signal in non-induced cells and compared to that of the maximal cell death with 100% Lysis Reagent. The rates of cell viability were determined by using CellTiter-Glo Luminescent Cell Viability Assay (Promega) following the manufacturer's protocol and the results are expressed as percentages of luminescence intensity per well after deducting the background signal in blank well and compared to that of the viability in the non-treated wells. Concentration of drugs used for inducing or inhibiting cell death, mTNFα: 1 ng/ml; 5Z-7-Oxozeaenol: 0.5 μM; Velcade: 50 nM; Apt-1/ICCB-19/ICCB-19i/Nec-1s: 10 μM.

Murine RGC5(661W) cells = test: RIPK1-dependent apoptosis (RDA) of RGC5 cells induced by TNFα plus 5Z-7-Oxozeaenol; format: cell-based; settings: Mus musculus, 21 hours
Protocol: Murine RGC5(661W) cells were seeded in 96-well plates (4000 cells per well). Different concentrations of the compounds were added one hour prior to TNFα treatment, followed by the addition of 0.5 ng/ml TNFα plus 0.5 μM 5Z-7-Oxozeaenol to induce RIPK1-dependent apoptosis (RDA). After incubation for 21 hours, cell viability was measured by CellTiter-Glo Luminescent Cell Viability Assay.

MEFs [2] = test: Necroptosis of MEFs induced by TNFα/5z7/zVAD; format: cell-based, mouse; settings: 10 μM
Protocol: The concentrations of reagents used: mTNFα: 1 ng/mL; (5Z)-7-oxozeaenol: 0.5 μM; zVAD: 20 μM; ICCB-19: 10 μM; Apt-1: 10 μM; Nec-1s: 10 μM. Mean s.d. from technical triplicates (n=3), representative of 3 independent experiments.

TRADD-N and TRADD-C = target: T2, TRADD-N and TRADD-C (Homo sapiens, UniProt Q15628); test: NanoBiT protein-protein interaction assay TRADD-N / TRADD-C; format: cell-based; settings: 4 h
T2 construct: expression constructs encoding Flag-TRADD-N(1-179) and HA-TRADD-C(180-312); expressed in transfected cells; host or cells: HEK293T
Protocol: Constructs were made encoding LgBiT and SmBiT fused to the N and C termini of TRADD-N and TRADD-C, respectively. HEK293T cells were transfected with these two plasmids for 24 h and then treated with indicated compounds for 4 h. The luminescence indicating the interaction of TRADD-N and TRADD-C was measured using Nano-Glo Live Cell Reagent. Mean ±s.d. from quintuplicates (n=5).
The Nano-Glo Live Cell assay kit (Promega) was used as follows: HEK293T cells were seeded at 7.5×10^3 cells per well in a white, clear-bottom 96-well plate 12 h before transfection (10 ng LgBiT-fused construct and 10 ng SmBiT-fused construct). After 24 h incubation, medium was removed and replaced with 100 μl Opti-MEM medium for 1 h at 37C. The Nano-Glo reagent was prepared as per manufacturer's instructions and added to each well immediately before the luminescence reading was taken. Luminescence was measured at 1 min intervals for 10 min on a plate reader and reported as relative light units (RLU). For quantitative comparison of LgBiT-SmBiT interactions, the peak values at the 2-3 min time point were used. Concentration of compounds used in NanoBiT assay: 10 μM (Apt-1, ICCB-19 or ICCB-19i).

RIPK1 = target: T3, RIPK1 (Homo sapiens, UniProt Q13546); test: Activation of overexpressed Flag-RIPK1 in HEK293T cells (p-S166); format: cell-based; settings: 10 μM, 12 h
T3 construct: expressed in transfected cells; host or cells: HEK293T
Protocol: The activation of RIPK1 was determined by immunoblotting using p-S166 RIPK1 antibody.

Beclin 1 = test: K63-linkage specific ubiquitination of Beclin 1 in MEFs; format: cell-based, mouse; settings: 6 h
Text: Anti-K63-linkage specific polyubiquitin antibody was used to conduct secondary immunoprecipitation. Samples were then immunoblotted with anti-Beclin 1 antibody to measure the K63-linkage specific ubiquitination of Beclin 1.

MEFs, BV2 cells, BMDMs = test: Inflammatory responses in cells stimulated with TNFα or PAMPs; format: cell-based; settings: 10 μM
Protocol: The protein levels of iNOS and Cox2 were determined by immunoblotting.
TNFα production was determined by ELISA.
The cells were then treated with Apt-1 (10 μM) or Nec-1s (10 μM) for 1 h and MDP (10 μg/ml) was added to cells directly and treated for 8 h. TNFα production was determined by ELISA. Mean ±s.d. from technical triplicates (n=3), representative of 3 independent experiments.

mTOR = mTOR signalling immunoblotting in MEFs; format: cell-based, mouse; settings: 10 μM
Text: Cell lysates analyzed by immunoblotting using indicated antibodies.

[3] = Table 3, 0.5 ng/ml TNFα plus 0.5 μM 5Z-7-Oxozeaenol, read-out: RGC5 T/5z7 IC50/μM

T3 sequence (Q13546 whole entry, species assumed): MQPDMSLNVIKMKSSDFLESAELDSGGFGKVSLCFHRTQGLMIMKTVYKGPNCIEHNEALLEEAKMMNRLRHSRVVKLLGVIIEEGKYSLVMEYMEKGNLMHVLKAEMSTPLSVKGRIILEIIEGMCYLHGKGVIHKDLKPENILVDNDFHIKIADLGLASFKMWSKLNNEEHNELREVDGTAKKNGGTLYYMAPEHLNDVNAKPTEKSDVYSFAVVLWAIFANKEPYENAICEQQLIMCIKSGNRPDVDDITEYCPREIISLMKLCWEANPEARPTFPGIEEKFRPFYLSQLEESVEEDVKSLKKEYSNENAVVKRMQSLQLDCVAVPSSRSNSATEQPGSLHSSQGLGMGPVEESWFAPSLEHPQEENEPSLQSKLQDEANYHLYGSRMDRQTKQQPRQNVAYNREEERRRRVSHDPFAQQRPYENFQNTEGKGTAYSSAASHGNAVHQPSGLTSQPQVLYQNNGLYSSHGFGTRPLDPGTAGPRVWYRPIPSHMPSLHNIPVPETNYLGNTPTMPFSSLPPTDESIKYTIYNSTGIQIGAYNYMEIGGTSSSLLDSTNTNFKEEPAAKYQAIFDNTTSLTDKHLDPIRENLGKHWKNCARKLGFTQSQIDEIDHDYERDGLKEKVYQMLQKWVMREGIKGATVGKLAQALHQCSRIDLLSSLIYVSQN

Row | SMILES | Kd (TRADD-N) [nM] | protection against RDA models (MEFs [1]) | IC50 (MEFs [1]) [nM] | IC50 (Murine RGC5(661W) cells; [3]) [µM] | inhibition of necroptosis (MEFs [2]) | NanoBit interaction signal between LgBiT-TRADD-N and TRADD-C-SmBiT (TRADD-N and TRADD-C) | inhibition of activation of overexpressed RIPK1 (RIPK1) | Beclin 1 K63 ubiquitination (Beclin 1) | production of inflammatory target genes and inflammatory cytokines (MEFs, BV2 cells, BMDMs) | effect on mTOR (mTOR) | IC50 (Murine RGC5(661W) cells; Table 2, 0.5 ng/ml TNFα plus 0.5 μM 5Z-7-Oxozeaenol, read-out: RGC5 T/5z7 IC50) [µM]
1 | CN1CCN=C1SC(C(=O)NC1CCCCCC1)c1ccccc1 (stereo not drawn) [Compound 30] | 2170 | protected against multiple RDA models | ~1000 | 1.28 | partially inhibited | dose-dependently reduced | cannot inhibit | dramatically enhanced | reduced production | no effect on mTOR | 
2 | O=C(CSC1=NCCN1)NC1CCCCCC1 [ICCB-19] | 2300 | protected against multiple RDA models | ~1000 | 2.01 | partially inhibited | dose-dependently reduced | cannot inhibit | dramatically enhanced | reduced production | no effect on mTOR | 0.18
